Source: patent publication US7223780B2, “Triazole-derivatives as blood clotting enzyme factor Xa inhibitors” (Sanofi-Aventis Deutschland GmbH, priority 2003, dated 2007)

The compounds below were run against T1, human factor Xa (Homo sapiens, UniProt P00742) (assay: Factor Xa chromogenic assay (substrate S-2765)). Conditions: inhibition constant for factor Xa, calculated from IC50 by Ki=IC50/{1+(substrate concentration/Km)}; 0.5 nM enzyme, 140 μM S-2765, 25° C.; read-out: Ki(FXa).
T1 construct: 25 μl human factor Xa (Enzyme Research Laboratories, Inc; South Bend, Ind.); purchased Enzyme Research Laboratories, Inc; South Bend, Ind
Assay type: biochemical
Protocol: The ability of the compounds of the formula I or II to inhibit factor Xa or factor VIIa or other enzymes like thrombin, plasmin, or trypsin can be assessed by determining the concentration of the compound of the formula I or II that inhibits enzyme activity by 50%, i.e. the IC50 value, which was related to the inhibition constant Ki. Purified enzymes were used in chromogenic assays. The concentration of inhibitor that causes a 50% decrease in the rate of substrate hydrolysis was determined by linear regression after plotting the relative rates of hydrolysis (compared to the uninhibited control) versus the log of the concentration of the compound of formulae I, II, Ia, Ib, Ic, Id, IIa, IIb or IId. For calculating the inhibition constant Ki, the IC50 value was corrected for competition with substrate using the formula Ki=IC50/{1+(substrate concentration/Km)} wherein Km is the Michaelis-Menten constant (Chen and Prusoff, Biochem. Pharmacol. 22 (1973) 3099–3108; I. H. Segal, Enzyme Kinetics, 1975, John Wiley & Sons, New York, 100–125; which were incorporated herein by reference). a) Factor Xa Assay
In the assay for determining the inhibition of factor Xa activity TBS-PEG buffer (50 mM Tris-HCl, pH 7.8, 200 mM NaCl, 0.05% (w/v) PEG-8000, 0.02% (w/v) NaN3) was used. The IC50 was determined by combining in appropriate wells of a Costar half-area microtiter plate 25 μl human factor Xa (Enzyme Research Laboratories, Inc.; South Bend, Ind.) in TBS-PEG; 40 μl 10% (v/v) DMSO in TBS-PEG (uninhibited control) or various concentrations of the compound to be tested diluted in 10% (v/v) DMSO in TBS-PEG; and substrate S-2765 (N((α)-benzyloxycarbonyl-D-Arg-Gly-L-Arg-p-nitroanilide; Kabi Pharmacia, Inc.; Franklin, Ohio) in TBS-PEG.
The assay was performed by pre-incubating the compound of formula I or II plus enzyme for 10 min. Then the assay was initiated by adding substrate to obtain a final volume of 100 μl. The initial velocity of chromogenic substrate hydrolysis was measured by the change in absorbance at 405 nm using a Bio-tek Instruments kinetic plate reader (Ceres UV900HDi) at 25° C. during the linear portion of the time course (usually 1.5 min after addition of substrate). The enzyme concentration was 0.5 nM and substrate concentration was 140 μM.

T1 sequence (P00742 235-488 limits assumed): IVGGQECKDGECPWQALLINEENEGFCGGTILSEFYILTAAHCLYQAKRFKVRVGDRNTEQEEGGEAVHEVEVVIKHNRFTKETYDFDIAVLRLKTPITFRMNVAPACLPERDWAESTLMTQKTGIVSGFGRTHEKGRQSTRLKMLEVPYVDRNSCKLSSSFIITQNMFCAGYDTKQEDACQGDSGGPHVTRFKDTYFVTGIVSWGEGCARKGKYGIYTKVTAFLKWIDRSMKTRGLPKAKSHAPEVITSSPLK
T1 sequence (P00742 41-179 partner limits assumed): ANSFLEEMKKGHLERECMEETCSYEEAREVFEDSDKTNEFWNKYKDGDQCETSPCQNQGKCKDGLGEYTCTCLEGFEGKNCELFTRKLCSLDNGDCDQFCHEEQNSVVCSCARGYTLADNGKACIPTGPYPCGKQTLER

`CC(C)N1CCC(NC(=O)c2nc(-n3cccc3)n(Cc3cc(-c4ccc(Cl)s4)on3)n2)CC1` [Example 1, 1-[5-(5-Chloro-thiophen-2-yl)-isoxazol-3-ylmethyl]-5-pyrrol-1-yl-1H-[1,2,4]triazole-3-carboxylic acid (1-isopropyl-piperidin-4-yl)-amide] and `CC(C)N1CCC(NC(=O)c2nc(-c3ccccn3)n(Cc3cc(-c4ccc(Cl)s4)on3)n2)CC1` [Example 2, 1-[5-(5-Chloro-thiophen-2-yl)-isoxazol-3-ylmethyl]-5-pyridin-2-yl-1H-[1,2,4]triazole-3-carboxylic acid (1-isopropyl-piperidin-4-yl)-amide] are within 1.5-fold of each other in Ki: 54 nM for the first, 80 nM for the second.

Compared with `CC(C)N1CCC(NC(=O)c2nc(-c3ccccn3)nn2Cc2cc(-c3ccc(Cl)s3)on2)CC1` [Example 3, 2-[5-(5-Chloro-thiophen-2-yl)-isoxazol-3-ylmethyl]-5-pyridin-2-yl-2H-[1,2,4]triazole-3-carboxylic acid (1-isopropyl-piperidin-4-yl)-amide], `CC(C)N1CCC(NC(=O)c2nnn(Cc3cc(-c4ccc(Cl)s4)on3)n2)CC1` [Example 5, 2-[5-(5-Chloro-thiophen-2-yl)-isoxazol-3-ylmethyl]-2H-tetrazole-5-carboxylic acid (1-isopropyl-piperidin-4-yl)-amide] is 3.3-fold higher in Ki: 100 nM for the first, 330 nM for the second.
